Data as given in the supplement of paper PMC10307832.

What was measured:
Experiment in all cases: relative viability (nuclei count vs DMSO), 5 days (fraction); higher = more cells survive
QS11 + Palbociclib = compound: C1CC2=C(C1)C=C(C=C2)OC3=NC(=C4C(=N3)N(C=N4)CC5=CC=C(C=C5)C6=CC=CC=C6)N[C@@H](CC7=CC=CC=C7)CO [QS11] + CC(=O)c1c(C)c2cnc(Nc3ccc(N4CCNCC4)cn3)nc2n(C2CCCC2)c1=O [Palbociclib] (partner 0.5 µM)
How it was run: (§1)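 Cells from lung cancer lines were seeded into 1536-well plates and, one day later, dosed by pin tool. Treatments were either a single drug or a fixed dose of an anchor drug with five library-drug doses (not always all listed) in √10 steps. After 5 days, nuclei were stained in a one-step fixation (final 0.05% Triton X-100, 1% formaldehyde, 1 ug/ml Hoechst) and counted on 4× images, and relative viability is the treated-to-vehicle nuclei ratio, as the median of duplicate plates.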

AZ628 + Trametinib = compound: CC1=C(C=C(C=C1)NC(=O)C2=CC(=CC=C2)C(C)(C)C#N)NC3=CC4=C(C=C3)N=CN(C4=O)C [AZ628] + CC(=O)Nc1cccc(-n2c(=O)n(C3CC3)c(=O)c3c(Nc4ccc(I)cc4F)n(C)c(=O)c(C)c32)c1 [Trametinib] (partner 0.02 µM)
How it was run: as §1

AZ628 + Alpelisib = compound: CC1=C(C=C(C=C1)NC(=O)C2=CC(=CC=C2)C(C)(C)C#N)NC3=CC4=C(C=C3)N=CN(C4=O)C [AZ628] + Cc1nc(NC(=O)N2CCC[C@H]2C(N)=O)sc1-c1ccnc(C(C)(C)C(F)(F)F)c1 [Alpelisib] (partner 2 µM)
How it was run: as §1

[1] = compound: C[As](C)SC[C@H](NC(=O)CC[C@H](N)C(=O)O)C(=O)NCC(=O)O [Darinaparsin] + CCNC(=O)c1noc(-c2cc(C(C)C)c(O)cc2O)c1-c1ccc(CN2CCOCC2)cc1 [Luminespib] (partner 0.01 µM)
How it was run: as §1

Cell Line | relative viability (QS11 + Palbociclib; first compound 0.08 µM) | relative viability (QS11 + Palbociclib; first compound 0.253 µM) | relative viability (QS11 + Palbociclib; first compound 0.8 µM) | relative viability (QS11 + Palbociclib; first compound 2.53 µM) | relative viability (QS11 + Palbociclib; first compound 8 µM) | relative viability (AZ628 + Trametinib; first compound 0.08 µM) | relative viability (AZ628 + Trametinib; first compound 0.253 µM) | relative viability (AZ628 + Trametinib; first compound 0.8 µM) | relative viability (AZ628 + Trametinib; first compound 2.53 µM) | relative viability (AZ628 + Trametinib; first compound 8 µM) | relative viability (AZ628 + Alpelisib; first compound 0.08 µM) | relative viability (AZ628 + Alpelisib; first compound 0.253 µM) | relative viability (AZ628 + Alpelisib; first compound 0.8 µM) | relative viability (AZ628 + Alpelisib; first compound 2.53 µM) | relative viability (AZ628 + Alpelisib; first compound 8 µM) | relative viability ([1]; first compound 0.08 µM) | relative viability ([1]; first compound 0.8 µM) | relative viability ([1]; first compound 2.53 µM) | relative viability ([1]; first compound 8 µM)
NCI-H2009 | 0.203 | 0.233 | 0.209 | 0.181 | 0.17 | 0.208 | 0.177 | 0.198 | 0.179 | 0.194 | 1.01 | 0.895 | 0.692 | 1.03 | 0.34 | 1.18 | 1.01 | 1.01 | 1.07
COR-L 105 | 0.423 | 0.437 | 0.417 | 0.352 | 0.442 | 0.435 | 0.401 | 0.382 | 0.352 | 0.36 | 0.998 | 1.27 | 0.921 | 1.03 | 0.632 | 0.867 | 0.775 | 0.712 | 0.682
ABC-1 | 0.805 | 0.782 | 0.652 | 0.64 | 0.5 |  |  |  |  |  | 1.16 | 1.05 | 1.17 | 1.1 | 0.906 | 0.358 | 0.608 | 1.04 | 0.676
NCI-H1793 | 0.335 | 0.274 | 0.29 | 0.404 | 0.491 | 0.388 | 0.332 | 0.282 | 0.198 | 0.206 | 0.921 | 0.75 | 0.684 | 0.564 | 0.593 | 0.238 | 0.162 | 0.161 | 0.175
NCI-H1792 | 0.679 | 0.886 | 0.491 | 0.667 | 0.741 | 0.333 | 0.247 | 0.117 | 0.195 | 0.052 | 0.788 | 0.679 | 0.522 | 0.607 | 0.425 | 0.681 | 0.387 |  | 0.539
ChaGo-K-1 |  | 0.955 | 1.02 | 1.02 | 1.07 | 0.911 | 0.879 | 0.881 | 0.873 | 0.839 |  |  |  |  |  | 0.692 | 0.502 | 0.55 | 0.786
NCI-H2342 | 0.52 | 0.541 | 0.515 | 0.474 | 0.491 | 0.839 | 0.878 | 0.907 | 0.752 | 0.978 |  |  |  |  |  | 0.773 | 0.8 | 0.813 | 0.826
NCI-H1975 | 0.555 | 0.531 | 0.58 | 0.74 | 0.733 | 0.331 | 0.272 | 0.228 | 0.259 | 0.288 | 0.603 | 0.701 | 0.594 | 0.66 | 0.328 | 0.233 | 0.221 | 0.23 | 0.187
CAL-12T | 0.431 | 0.568 | 0.409 | 0.499 | 0.264 | 0.295 | 0.248 | 0.259 | 0.193 | 0.305 | 1.29 |  | 1.2 | 1.34 | 0.503 | 0.182 | 0.429 | 0.429 | 0.761
